Several values for one entry are separate records, joined by “and”; a condition that tells them apart may be missing. Equal values may be shown once. Activity calls are given as the source filed them. The rule behind the calls is not given here.
Each molecule was assayed against Serine/threonine-protein kinase PLK1 (Homo sapiens) (UniProt P53350) (assay: PLK1 polo-box domain peptide-binding inhibitors, SAR follow-up, biochemical, fluorescence polarization, purchased analogs, concentration response (AID 1083)). Conditions: Plk1 PBD peptide binding.
Chain of Serine/threonine-protein kinase PLK1 (Homo sapiens) (P53350 whole entry, looked up, the tested form may be a part): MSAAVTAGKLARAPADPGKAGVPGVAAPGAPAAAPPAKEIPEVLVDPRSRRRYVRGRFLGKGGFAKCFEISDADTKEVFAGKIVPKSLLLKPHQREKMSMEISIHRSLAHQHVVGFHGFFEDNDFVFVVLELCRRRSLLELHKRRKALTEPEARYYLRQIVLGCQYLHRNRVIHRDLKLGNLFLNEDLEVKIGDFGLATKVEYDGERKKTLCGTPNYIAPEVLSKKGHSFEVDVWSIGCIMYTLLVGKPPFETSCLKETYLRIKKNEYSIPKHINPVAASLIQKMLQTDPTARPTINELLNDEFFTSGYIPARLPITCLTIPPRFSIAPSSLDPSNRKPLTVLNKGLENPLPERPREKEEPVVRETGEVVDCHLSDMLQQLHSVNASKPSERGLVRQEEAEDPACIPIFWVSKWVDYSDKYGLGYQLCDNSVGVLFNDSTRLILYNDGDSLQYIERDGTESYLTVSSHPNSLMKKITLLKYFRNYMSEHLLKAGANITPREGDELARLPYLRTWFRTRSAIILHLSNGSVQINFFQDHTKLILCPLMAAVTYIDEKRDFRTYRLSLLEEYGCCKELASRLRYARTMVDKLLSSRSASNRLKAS
With `CCn1nc(-c2ccc([N+](=O)[O-])cc2)nc2c(=O)n(C)c(=O)nc1-2` the IC50 was 0.571 µM. `O=c1cc[nH]c2cc(N3CCOCC3)c(F)cc12` was tested, and the IC50 was > 50 µM (inactive). With `CC(=O)Oc1ccccc1N(/C=C1\Sc2ccccc2C1=O)C(C)=O` the IC50 was > 50 µM (inactive). Work on `CC(=O)N(/N=C1\Sc2ccccc2C1=O)c1ccccc1[N+](=O)[O-]` yielded an IC50 of 18.7 µM. In the case of `CCN(CC)CCOC(=O)c1ccc(N=Cc2c(O)n(C)c(=O)[nH]c2=O)cc1`, the IC50 is reported as > 50 µM (inactive). With `COc1ccc(N(CN2C(=O)c3ccccc3C2=O)C(C)=O)cc1` the IC50 was > 50 µM (inactive). In the case of `CCn1c(N/C(O)=C/C(O)(C(F)(F)F)C(F)(F)F)nc2ccccc21`, the IC50 is reported as > 50 µM (inactive). `CCn1nc(-c2ccc(OC)cc2)nc2c(=O)n(C)c(=O)nc1-2` gave an IC50 of 0.912 µM. `CCCOC(=O)c1ccc(NC(=O)c2ccc(C)c(I)c2)cc1` was tested, and the IC50 was > 50 µM (inactive). With `Cc1ccccc1-c1nnc2[nH]c(=O)n(C)c(=O)c2n1` the IC50 was > 50 µM (inactive). For `CC(=O)N(/C=C1\Sc2ccccc2C1=O)c1cccc(C)c1`, the IC50 was > 50 µM (inactive). For `CC(=O)Oc1ccccc1N(/C=C1/Sc2ccccc2C1=O)C(C)=O`, the IC50 was > 50 µM (inactive). For `CCOC(=O)c1ccc(N=C(c2ccccc2)c2c(O)n(C)c(=O)n(C)c2=O)cc1`, the IC50 was > 50 µM (inactive). With `Cn1c(=O)c2nc(-c3ccccc3)c(=O)n(C)c2n(C)c1=O` the IC50 was > 50 µM (inactive). `CCOC(=O)c1ccc(NC(=O)c2ccc(Cl)c(Cl)c2)cc1` was tested, and the IC50 was > 50 µM (inactive). `O=c1[nH]c(=O)c2nc(-c3ccc(Cl)cc3)cnc2[nH]1` was tested, and the IC50 was > 50 µM (inactive). With `CC(=O)N(/N=C1\Sc2ccccc2C1=O)c1ccccc1` the IC50 was 20.5 µM. `CN(C)c1ccc(-c2nnc3c(n2)c(=O)n(C)c(=O)n3C)cc1` was tested, and the IC50 was > 50 µM (inactive). With `CC(=O)N(/N=C1\Sc2ccccc2C1=O)c1ccccc1Cl` the IC50 was > 50 µM (inactive). For `CCN(CC)CCOC(=O)c1ccc(NC(=O)c2cc(OC)c(OC)cc2OC)cc1`, the IC50 was > 50 µM (inactive). For `COc1cc(C=C2C(=O)NC(=O)NC2=O)ccc1OCc1ccc(Cl)cc1Cl`, the IC50 was > 50 µM (inactive). `CCOC(=O)c1ccc(N=Cc2c(O)n(-c3ccc(C)cc3)c(=O)[nH]c2=O)cc1` was tested, and the IC50 was > 50 µM (inactive). With `Cn1c(=O)[nH]c2nnc(-c3ccc([N+](=O)[O-])cc3)nc2c1=O` the IC50 was > 50 µM (inactive). For `CCOC(=O)c1ccc(N=Cc2c(O)n(-c3ccc(OCC)cc3)c(=O)[nH]c2=O)cc1`, the IC50 was > 50 µM (inactive). `COc1cc(C=C2C(=O)NC(=O)NC2=O)ccc1OCc1c(C)no[n+]1[O-]` was tested, and the IC50 was > 50 µM (inactive). In the case of `CC(=O)N(/N=C1\Sc2ccccc2C1=O)c1cc(C)ccc1C`, the IC50 is reported as > 50 µM (inactive). `O=c1[nH]c2c(c(O)c1-c1ccccc1)c(=O)n(-c1ccccc1)c(=O)n2-c1ccccc1` was tested, and the IC50 was > 50 µM (inactive). With `COc1ccccc1N(/C=C1\Sc2ccccc2C1=O)C(C)=O` the IC50 was > 50 µM (inactive). In the case of `CC(=O)Oc1c(Cl)c(N2CCOCC2)c(OC(C)=O)c2ccccc12`, the IC50 is reported as > 50 µM (inactive). In the case of `Cn1c(=O)c2nc(-c3ccccc3)c(=O)[nH]c2n(C)c1=O`, the IC50 is reported as > 50 µM (inactive). `CCOC(=O)c1ccc(N=Cc2c(O)n(Cc3cccs3)c(=O)[nH]c2=O)cc1` was tested, and the IC50 was > 50 µM (inactive). For `Cn1c(=O)[nH]c2nnc(-c3ccc(C(F)(F)F)cc3)nc2c1=O`, the IC50 was > 50 µM (inactive). `CCOC(=O)c1ccc(NC(=O)c2cc(=O)[nH]c3ccccc23)cc1` was tested, and the IC50 was > 50 µM (inactive). `CCOC(=O)c1ccc(NC(=O)C2CC(=O)N=C(N)S2)cc1` (configuration not stated) was tested, and the IC50 was > 50 µM (inactive). `CC(=O)N(CN1C(=O)c2ccc([N+](=O)[O-])cc2C1=O)c1ccc(Oc2ccccc2)cc1` was tested, and the IC50 was > 50 µM (inactive). For `CCn1nc(-c2ccc(C(F)(F)F)cc2)nc2c(=O)n(C)c(=O)nc1-2`, the IC50 was 0.552 µM. With `CCOC(=O)c1ccc(N=Cc2c(O)n(Cc3ccccc3Cl)c(=O)[nH]c2=O)cc1` the IC50 was > 50 µM (inactive). With `COc1ccc(-c2nnc3[nH]c(=O)n(C)c(=O)c3n2)cc1` the IC50 was > 50 µM (inactive). `O=C(COC(=O)c1ccc(NC(=O)c2ccc(Cl)cc2)cc1)c1ccccc1` was tested, and the IC50 was > 50 µM (inactive). In the case of `COc1cc(Br)cc(C=C2C(=O)NC(=O)NC2=O)c1O`, the IC50 is reported as > 50 µM (inactive). `CCCC(=O)c1c(O)[nH]c(=O)[nH]c1=O` was tested, and the IC50 was > 50 µM (inactive). `CCOC(=O)c1ccc(N=Cc2c(O)n(CC)c(=O)[nH]c2=O)cc1` was tested, and the IC50 was > 50 µM (inactive). For `CCOC(=O)c1ccc(NC(=O)C2CCC(C(C)(C)C)CC2)cc1` (configuration not stated), the IC50 was > 50 µM (inactive). With `CCOC(=O)c1ccc(NC(=O)c2c(C)cc(=O)oc2C)cc1` the IC50 was > 50 µM (inactive). `CCn1nc(-c2ccccc2Cl)nc2c(=O)n(C)c(=O)nc1-2` gave an IC50 of 1.55 µM. `CC(=O)N(CN1C(=O)c2ccccc2C1=O)c1ccc(C)cc1` was tested, and the IC50 was > 50 µM (inactive). For `CCN(CC)CCOC(=O)c1ccc(N=Cc2c(O)n(Cc3ccccc3)c(=O)[nH]c2=O)cc1`, the IC50 was > 50 µM (inactive). `COc1ccccc1N(/N=C1\Sc2ccccc2C1=O)C(C)=O` showed an IC50 of 13.3 µM. With `COc1ccc(C(=O)COC(=O)c2ccc(NC(=O)c3ccccc3)cc2)cc1` the IC50 was > 50 µM (inactive). With `COC(=O)c1ccc(NC(=O)c2cc(-c3ccc(C)o3)nc3ccccc23)cc1` the IC50 was > 50 µM (inactive). For `CC(=O)N(/N=C1\Sc2ccccc2C1=O)c1cccc(Br)c1`, the IC50 was 20.9 µM. With `CCOC(=O)c1ccc(NC(=O)C2OCCc3ccccc32)cc1` (configuration not stated) the IC50 was > 50 µM (inactive). In the case of `CCOC(=O)c1ccc(N=Cc2c(O)n(Cc3ccccc3)c(=O)[nH]c2=O)cc1`, the IC50 is reported as > 50 µM (inactive). With `CC(=O)N(/N=C1\Sc2ccccc2C1=O)c1ccccc1C` the IC50 was 37.4 µM. `CC(=O)N(/C=C1\Sc2ccccc2C1=O)c1cc(C(F)(F)F)ccc1Cl` was tested, and the IC50 was > 50 µM (inactive). With `CCN(CC)CCOC(=O)c1ccc(N=Cc2c(O)n(-c3c(C)cc(C)cc3C)c(=O)[nH]c2=O)cc1` the IC50 was > 50 µM (inactive). `CCN(CC)CCOC(=O)c1ccc(N=Cc2c(O)[nH]c(=O)[nH]c2=O)cc1` was tested, and the IC50 was > 50 µM (inactive). `CCOC(=O)c1ccc(N=Cc2c(O)n(C)c(=O)n(C)c2=O)cc1` was tested, and the IC50 was > 50 µM (inactive). With `CC(=O)N(CN1C(=O)c2ccccc2C1=O)c1ccc(F)cc1` the IC50 was > 50 µM (inactive). With `CCOC(=O)c1ccc(NC(=O)c2ccc3snnc3c2)cc1` the IC50 was > 50 µM (inactive). `CC(=O)N(/N=C1\Sc2ccccc2C1=O)c1cccc(C)c1` showed an IC50 of 14 µM. `CCOC(=O)c1ccc(NC(=O)C2C3C=CC(C3)C2(C)C(=O)O)cc1` (configuration not stated) was tested, and the IC50 was > 50 µM (inactive). With `CCOC(=O)c1ccc(NC(=O)C2CCC(C)CC2)cc1` (configuration not stated) the IC50 was > 50 µM (inactive). In the case of `CCOC(=O)c1ccc(N=Cc2c(O)n(Cc3ccc4c(c3)OCO4)c(=O)[nH]c2=O)cc1`, the IC50 is reported as > 50 µM (inactive). With `CCn1nc(-c2ccccc2C)nc2c(=O)n(C)c(=O)nc1-2` the IC50 was 0.636 µM and 5.67 µM. `CCOc1cc(-c2nnc3[nH]c(=O)n(C)c(=O)c3n2)ccc1OC(C)C` was tested, and the IC50 was 28.9 µM. `O=C1NC(=O)C(=Cc2cccn2-c2ccc([N+](=O)[O-])cc2)C(=O)N1` was tested, and the IC50 was > 50 µM (inactive). In the case of `Cn1c(=O)[nH]c2nnc(-c3ccc(F)cc3)nc2c1=O`, the IC50 is reported as > 50 µM (inactive). `Cn1c(=O)[nH]c(=O)c2nc(-c3ccccc3)c(-c3ccccc3)nc21` was tested, and the IC50 was > 50 µM (inactive). For `CCCCCCC(=O)N(CN1C(=O)c2ccccc2C1=O)c1ccccc1`, the IC50 was > 50 µM (inactive). `CC(=O)N(/N=C1\Sc2ccccc2C1=O)c1ccccc1I` was tested, and the IC50 was > 50 µM (inactive). For `CC(=O)N(CN1C(=O)c2ccccc2C1=O)c1ccc(I)cc1`, the IC50 was > 50 µM (inactive). With `Cn1nc(-c2ccccc2)nc2c(=O)n(C)c(=O)nc1-2` the IC50 was 1.45 µM. `CC(=O)N(/C=C1\Sc2ccccc2C1=O)c1ccc(C)cc1` was tested, and the IC50 was > 50 µM (inactive). `Cn1nc(-c2ccc(F)cc2)nc2c(=O)n(C)c(=O)nc1-2` showed an IC50 of 0.325 µM. `CCc1ccc(-c2nc3c(=O)n(C)c(=O)nc-3n(CC)n2)cc1` was tested, and the IC50 was 0.786 µM and > 50 µM (inactive). `CCCOC(=O)c1ccc(NC(=O)c2cc(-c3cccs3)nc3c(C)c(Cl)ccc23)cc1` was tested, and the IC50 was > 50 µM (inactive). `CCOC(=O)c1ccc(NC(=O)C2COc3ccccc3O2)cc1` (configuration not stated) was tested, and the IC50 was > 50 µM (inactive). In the case of `CC(=O)N(CN1C(=O)c2ccccc2C1=O)c1cc(C)ccc1C`, the IC50 is reported as > 50 µM (inactive). In the case of `CC(=O)N(CN1C(=O)c2ccc(Br)cc2C1=O)c1ccc(Cl)cc1`, the IC50 is reported as > 50 µM (inactive). With `CCCCOC(=O)c1ccc(N=Cc2c(O)[nH]c(=O)[nH]c2=O)cc1` the IC50 was > 50 µM (inactive). `Cn1nc(-c2ccc(C(F)(F)F)cc2)nc2c(=O)n(C)c(=O)nc1-2` was tested, and the IC50 was 0.21 µM and 0.851 µM. In the case of `CC(=O)N(CN1C(=O)c2ccccc2C1=O)c1ccc(Br)cc1`, the IC50 is reported as > 50 µM (inactive). `CCCCCOC(=O)c1ccc(NC(=O)c2ccc([N+](=O)[O-])cc2)cc1` was tested, and the IC50 was > 50 µM (inactive). With `CCCOC(=O)c1ccc(NC(=O)c2ccc(OC)c([N+](=O)[O-])c2)cc1` the IC50 was > 50 µM (inactive). In the case of `CC(=O)c1ccc(N(CN2C(=O)c3ccc([N+](=O)[O-])cc3C2=O)C(C)=O)cc1`, the IC50 is reported as > 50 µM (inactive). In the case of `CCOC(=O)c1ccc(NC(=O)c2cc3ccccc3c(=O)o2)cc1`, the IC50 is reported as > 50 µM (inactive). With `CCOC(=O)c1ccc(N=Cc2c(O)n(-c3cccc(OC)c3)c(=O)[nH]c2=O)cc1` the IC50 was > 50 µM (inactive). With `CCn1nc(-c2ccc(C(=O)OC)cc2)nc2c(=O)n(C)c(=O)nc1-2` the IC50 was 0.488 µM. `COc1ccccc1N(CN1C(=O)c2ccc([N+](=O)[O-])cc2C1=O)C(C)=O` was tested, and the IC50 was > 50 µM (inactive). For `Cc1ccc(N(CN2C(=O)c3ccc([N+](=O)[O-])cc3C2=O)C(=O)C(c2ccccc2)c2ccccc2)cc1`, the IC50 was > 50 µM (inactive). With `CC(OC(=O)c1ccc(NC(=O)c2ccc(Br)cc2)cc1)C(=O)c1ccccc1` (configuration not stated) the IC50 was > 50 µM (inactive). `CC(=O)N(CN1C(=O)c2ccccc2C1=O)c1ccc2ccccc2c1` was tested, and the IC50 was > 50 µM (inactive). For `O=C1NC(=O)C(=Cc2cc(Cl)c(OCc3ccc(C(=O)O)cc3)c(Cl)c2)C(=O)N1`, the IC50 was > 50 µM (inactive). `Cn1c(=O)[nH]c2nnc(-c3ccc(Cl)cc3)nc2c1=O` was tested, and the IC50 was > 50 µM (inactive). For `CC(=O)N(CN1C(=O)c2ccccc2C1=O)c1ccc(Cl)c(Cl)c1`, the IC50 was > 50 µM (inactive). With `CCOC(=O)c1ccc(N=Cc2c(O)n(-c3cccc(C)c3)c(=O)[nH]c2=O)cc1` the IC50 was > 50 µM (inactive).
